Results reported in PubChem BioAssay AID179 (DTP/NCI, 2004).
Calls of active or inactive are those of the source.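 How the source made its calls: active means compounds giving half or more protection of infected cells from virus-caused growth loss, again on retest; inactive means the rest.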

Tested on: CEM cells HIV-1 protection, formazan growth assay
Assay: NCI AIDS Antiviral Assay
Conditions: for IC50: measured here: growth of uninfected CEM cells
In short: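 Protection of CEM cells against HIV-1 was scored from cell growth (soluble formazan) across five concentrations, with parallel uninfected cells. Lack of protection may reflect toxicity.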

Row | Structure (SMILES) | EC50 [µM] | IC50 [µM] | outcome
1 | Cc1cc2c(O)c(c1)CN(CC(=O)O)Cc1cc(C)cc(c1O)CN(CC(=O)O)Cc1cc(C)cc(c1O)CN(CC(=O)O)C2 | > 200 | > 200 | –
2 | O=S(=O)(SSS(=O)(=O)c1ccc(Cl)cc1)c1ccc(Cl)cc1 | > 63.1 | > 63.1 | –
3 | Cc1cc(N)c2ccccc2[n+]1CCCCCCCCCC[n+]1c(C)cc(N)c2ccccc21 | > 24.5 | 0.155 | –
4 | CC(C)(C)C1CCP(=O)(c2ccccc2)CC1 (configuration not stated) | 0.0631 | > 200 | –
5 | Cc1cn([C@H]2C[C@@H]3[C@@H](COC(C(Cl)Cl)N3O)O2)c(=O)[nH]c1=O (some centres not stated) | > 200 | > 200 | –
6 | O=C(NCCN1CCCCC1)c1ccc(Br)cc1 | > 200 | > 200 | –
7 | Cn1c2ccccc2n2c3ncccc3c(=O)c(C#N)c12 | > 50.1 | 1.26 | –
8 | COc1ccc(CCN(C)C2CCC(C#N)(c3ccc(OC)c(OC)c3)CC2)cc1OC (configuration not stated) | > 145 | 74.1 | –
9 | COc1cccc(NC(=O)CC(=O)N2N=C(N(CCC#N)c3ccccc3C)CC2c2ccccc2)c1 (configuration not stated) | > 501 | > 501 | –
10 | C/C=C1\C=C(OC)CN(CCc2c[nH]c3ccccc23)C1 | > 158 | 50.1 | –
11 | CC1(C)C(=O)C(C)(C)C1O | > 1780 | > 1780 | –
12 | Fc1ccc(C2SCc3nc4ccccc4n32)cc1 (configuration not stated) | – | – | inactive
13 | COc1ccc(C2NC(=O)N3C(c4ccc(OC)c(OC)c4)NC(=O)N23)cc1OC (configuration not stated) | > 200 | > 200 | –
14 | C[C@H](C(=O)O)C(=O)NC(=O)N(Cc1ccccc1)N=O | – | – | inactive
15 | COc1ccc(/C=C2\CCS(=O)(=O)c3ccccc3C2=O)cc1 | > 200 | 16.6 | –
16 | CCOC(=O)C1=CN=C2C(=O)N(c3ccccc3)N(C)C2(C)C1=N (configuration not stated) | > 200 | > 200 | –
17 | COC(=O)C1CC(C(=O)OC)c2nc3cc(C)c(C)cc3nc21 (configuration not stated) | > 83.2 | > 83.2 | –
18 | CCN(CC)CCN(CC)C(=O)COc1cc2c(O)c3c(O)c(C)c4c(c13)C(=O)C(C)(O/C=C/C(OC)C(C)C(OC(C)=O)C(C)C(O)C(C)C(O)C(C)/C=C/C=C(\C)C(=O)N2)O4 (configuration not stated) | > 200 | 35.5 | –
19 | CC(=O)OC1COC(c2ccccc2)OC1C1OC(c2ccccc2)OCC1OC(C)=O (configuration not stated) | > 200 | > 200 | –
20 | O=C(O)c1ccccc1C1c2ccc(Cl)cc2Oc2cc(Cl)ccc21 | > 10 | > 10 | –
21 | Cc1c(C)n(-c2ccccc2)c2nc(S(C)(=O)=O)nc(S(C)(=O)=O)c12 | > 200 | 0.288 | –

Row | Structure (SMILES) | EC50 [µM] | IC50 [µM] | outcome
22 | CC(=O)c1cccc2c1CC1(C2)Cc2ccc3c(c2C1=O)CCC3 (configuration not stated) | > 200 | > 200 | –
23 | COc1cc(/C=C/c2nc3ccccc3nc2/C=C/c2cc(OC)c(OC)c(OC)c2)cc(OC)c1OC | > 7.41 | > 7.41 | –
24 | COC(=O)C(Cc1ccccc1)C(=O)C(CC(=O)OC(C)(C)C)NC(=O)OC(C)(C)C (configuration not stated) | > 200 | > 200 | –
25 | Cn1cc(NC(=O)Nc2cc(C(=O)Nc3cc(C(=O)Nc4cc(C(=O)Nc5cc(P(=O)(O)O)c6cccc(P(=O)(O)O)c6c5)n(C)c4)n(C)c3)n(C)c2)cc1C(=O)Nc1cc(C(=O)Nc2cc(C(=O)Nc3cc(P(=O)(O)O)c4cccc(P(=O)(O)O)c4c3)n(C)c2)n(C)c1 | 0.288 | 75.9 | –
26 | O=C1C=CC(=O)c2nc(-c3ccccc3)c(-c3ccccc3)nc21 | 0.363 | 12 | –
27 | CC(C)=CCC/C(C)=C/Cc1cc(O)c(Br)cc1O | > 145 | 24 | –
28 | CSc1n[nH]c(NC(=O)c2ccccc2Cl)n1 | > 132 | > 132 | –
29 | O=c1[nH]c2cnn(-c3ccccc3)c2c(=O)n1OS(=O)(=O)c1ccccc1 | > 200 | > 200 | –
30 | CCOC(=O)/C(=C\c1ccc(C(=O)OC)cc1)[Se]c1ccccc1 | > 66.1 | 61.7 | –
31 | CN1CCN=C(c2ccccc2)c2cc(Cl)ccc21 | > 200 | 105 | –
32 | COC(=O)C12CCCN1CCC2 | 26.3 | > 200 | –
33 | O=C1C2CSCC1CN(Cc1ccccc1)C2 | > 525 | > 525 | –
34 | C/C1=C2\CC(OC3OCC(O)C(O)C3O)C(C)C2C/C=C(/C=O)[C@H]2C[C@@]3(C)CCC(C(C)C)C3CC12 (some centres not stated) | > 93.3 | > 93.3 | –
35 | O=C1C2=C(c3ccccc31)C(c1ccccc1Cl)N1C(=O)CSC1=N2 (configuration not stated) | > 37.2 | > 37.2 | –
36 | CC1C=C(OC(=O)c2ccccc2)C(=O)C(n2cc(F)c(=O)[nH]c2=O)O1 (configuration not stated) | – | – | inactive
37 | CCN(CC)CCNC(=O)c1ccccc1Nc1c(Cl)cccc1Cl | > 200 | 27.5 | –
38 | C=C1c2ccccc2CCN1CC(=O)CC1C=CCS1(=O)=O (configuration not stated) | > 407 | > 407 | –
39 | Brc1c(C(Br)Br)ccc2ccccc12 | > 200 | 23.4 | –
40 | C=C(CN)CO[Si](C)(C)C(C)(C)C | > 200 | 110 | –
41 | O=c1/c(=C/c2ccc(Cl)cc2)sc2nc(-c3ccccc3)nn12 | > 200 | > 200 | –
42 | CC(C)C(Sc1nc(-c2ccccc2)c(-c2ccccc2)[nH]1)C(=O)NNC(=S)Nc1ccccc1 (configuration not stated) | > 51.3 | 24 | –

Row | Structure (SMILES) | EC50 [µM] | IC50 [µM] | outcome
43 | NS(=O)(=O)c1ccccc1[N+](=O)[O-] | – | – | inactive
44 | CCCNC(=O)C1C(=O)C(=O)N(CCC)C1=O (configuration not stated) | – | – | inactive
45 | Oc1c(Br)cc(Br)cc1/C=C/NC(=S)NC1CC2CC1C1C=CCC21 (configuration not stated) | > 200 | 3.02 | –
46 | CCCCCNP1(NCCCCC)=NP(NCCCCC)(NCCCCC)=NP(NCCCCC)(NCCCCC)=NP(NCCCCC)(NCCCCC)=N1 | > 50.1 | > 50.1 | –
47 | C=C(C)[C@@H]1CC[C@]2(CO)CC[C@]3(C)[C@H](CC[C@@H]4[C@@]5(C)CC[C@H](O)C(C)(C)[C@@H]5CC[C@]43C)[C@@H]12 | 41.7 | 69.2 | –
48 | C/C=C/C=Nc1c(C#N)c2n(c1C(=O)Nc1ccc(Cl)cc1)CCC2 | > 50.1 | 23.4 | –
49 | O=[N+]([O-])c1ccc(-c2nc(N(CCO)CCO)c3ccccc3n2)o1 | > 200 | 0.331 | –
50 | CCCCCCCCOCC(O)COC(C)C (configuration not stated) | > 200 | 115 | –
51 | CCCCCCCCC(=O)NCCCNCCCNC(=O)CCCCCCCC | > 100 | 10 | –
52 | CCOC(=O)/C(=C/c1ccc(OC)cc1)C(=O)c1ccccc1 | > 17 | > 17 | –
53 | Fc1ccc2nncc(SCc3ccccc3)c2c1 | > 132 | 19.5 | –
54 | C=CCNC(=S)N/C=C(\C#N)c1nc2ccccc2s1 | > 200 | > 200 | –
55 | COC(=O)/C(=N\N)C(C(=O)C(=O)Nc1nc(=S)[nH][nH]1)c1nc2ccc([N+](=O)[O-])cc2[nH]c1=O (configuration not stated) | > 75.9 | > 75.9 | –
56 | ClCCN1CCOC1=Nc1ccc2c(c1)CCCC2 | > 200 | 43.7 | –
57 | CCOc1ccccc1NC(=O)CSc1nnc(Cc2ccccc2)o1 | > 182 | 10 | –
58 | C1CN2CCN3CCN4CCN1[P+]243 | – | – | inactive
59 | c1ccc(C2=Nc3nc4ccccc4n3C(c3ccccc3)C2)cc1 (configuration not stated) | > 151 | > 151 | –
60 | O=C(Nn1c(-c2ccccc2)nc2ccccc2c1=O)c1ccccc1O | > 200 | 17.4 | –
61 | Cc1nn(C(=O)c2ccncc2)c2c1C(c1ccccc1[N+](=O)[O-])SC(N)=N2 (configuration not stated) | – | – | inactive
62 | Cn1c(=O)nc2n(-c3cc(C(F)(F)F)cc(C(F)(F)F)c3)c3ccccc3nc-2c1=O | – | – | inactive
63 | N/N=C(\N)SCc1ccc(N=C=S)cc1 | – | – | inactive
